Patent publication US7557089B2, “Use of derivatives of succinate esters for the treatment of dementia” (priority 2002, dated 2009)
Like-named read-outs stand apart in the source and are kept apart here.

Tests used:
[1] = tested on: learning and memory performance impairment caused by permanent occlusion of carotid arteries; experiment: Step-down test, permanent occlusion of 2 carotid arteries (2-VO) in mice; format: in vivo
Procedure: (§1) At surgery, under pentobarbital anaesthesia (40 mg/kg i.p.), the common carotid arteries of mice were exposed and occluded with thread permanently and the surrounding skin sutured. Sham-operated controls had their carotids exposed but not occluded. After 1 week, the survival mice with occluded carotids were randomly divided into 3 groups. 2 groups were repeated administered with CE (5 mg/kg, po) or W6 (1 mg/kg, po) daily. Four weeks after surgery, mice were trained and tested in a water maze and step-down apparatus.

KM mice = experiment: Acute toxicity study in mice; format: in vivo; conditions: 0.5 g/kg i.p. or p.o.
Source text: KM mice were used for this experiment. 10 male and 10 female mice were included in each group. CE (5 g/kg) or W6-W9 (0.5 g/kg) were given by oral or by i.p. The animals were observed carefully and their body weight were checked every 3 days within 2 weeks.

[2] = tested on: learning and memory performance impairment caused by permanent occlusion of carotid arteries; experiment: Water-maze test, permanent occlusion of 2 carotid arteries (2-VO) in mice; format: in vivo; conditions: 2-VO mice, four weeks after surgery, dose 1 mg/kg po daily
Source text: (§2) Water-maze test: Each mouse was first placed on the stairs, then released into the water from position 1 and allowed 120 sec to find the stairs. The mouse received 2 trials per day for 3 days. The starting location varied from position 1 to position 2 and position 3 for the next 2 day. The distance and the dead end increased every day. In D4, the mouse was put into water from position 3, the time to escape from water to the stairs and the number of entering the dead ends (number of errors) were measured. This method is used to evaluate the spatial performance and learning and memory performance of animal.
as §1

[3] = tested on: Aβ(1-42)-induced memory impairment; experiment: Step-down test, Aβ(1-42)-induced impairment (ICV injection) in mice; format: in vivo
Procedure: (§3) Aβ(1-42) (10 μg/mouse) was administered via ICV injection. The sham group was given same volumn of Ringer's solution. One week later, The mice with injection of Aβ(1-42) were randomly divided into 3 groups, and were administered by oral with saline, CE (5 mg/kg) or W6 (1 mg/kg), respectively. Two weeks later, step-down test and water-maze test were performed for evaluating the capacity of learning and memory of mice.

[4] = tested on: memory impairment induced by scopolamine; experiment: Step-down passive avoidance test, impairment caused by scopolamine in mice; format: in vivo, Male ICR mice; conditions: for Number of errors: during 5 min; for Number of errors / Latency: scopolamine 1 mg/kg i.p.; for effect on scopolamine-induced impairment of passive avoidance (step-down latency, number of errors): result in words
Procedure: Male ICR mice, 24-28 g, were used. The mice were housed for 2 days period of habituation before experiment. Mice were randomized into groups (n=20).
The mice were administered by gavage of physiological saline, or drugs at different doses, respectively in the negative control, scopolamine group, and test drugs groups. Twice daily for 2 days.
At D3, 30 min after administration of test drugs, scopolamine (1 mg/kg i.p) was administered, except for the control group.
30 min later, each mouse was individually placed onto the safety platform in the box of step-down apparatus. When the mouse stepped down and touched the grid floor, it was given an electric shock with a tension of 36V, and jumped back onto the rubber platform. Each animal was trained for 5 min and returned to the home cage.
24 hours after the learning trial, the animal was again placed on the platform and the step-down latency and the number of step-down events (number of errors) during 5 min were recorded.

[5] = molecular target: Acetylcholinesterase (AchE) (Rattus norvegicus, UniProt P37136); conditions: for inhibition (%): AchE activity, rat forebrain; for AchE activity: rat forebrain homogenate
Procedure: The rats were fasting over night and given a single oral dose of drugs. 1 hour later, the rats were decapitated, the forebrains were rapidly removed under ice bath, weighed and homogenized in 0.9% saline using a ultrasonic homogenizer to obtain 10% brain homogenate. The homogenate was centrifuged (6000 rpm) for 20 mins at low temperature, and retained the supernatant. Then the AchE activity was measured with an assay kit.

[6] = tested on: Aβ(1-42)-induced memory impairment; experiment: Water-maze test, Aβ(1-42)-induced impairment of learning and memory in mice; format: in vivo
Procedure: as §3, §2

[7] = tested on: cycloheximide-induced memory deficit; experiment: Step-down passive avoidance test, impairment induced by cycloheximide in mice; format: in vivo; conditions: for Improvement (%): step-down latency; for Improvement (%) / Latency / No. of errors: cycloheximide 120 mg/kg i.p.; for Latency / No. of errors: step-down test; for No. of errors: during 5 min
Procedure: The randomization and the administration of drugs are as before. The mice were administered with cycloheximide (120 mg/kg i.p), except for the control group. 30 min later, each mouse was individually placed onto the platform of the step-down apparatus, and trained for 5 min. The retention test started 24 hours later, the step-down latency and the number of step-down events (number of errors) during 5 min were recorded.

[8] = step-down test, 2-VO mice, four weeks after surgery, dose 1 mg/kg po daily
[9] = step-down test, Aβ(1-42) 10 μg/mouse ICV, mice, dose 1 mg/kg oral, two weeks
[10] = 1 hour after single oral dose 5 mg/kg
[11] = 1 hour after single oral dose 20 mg/kg

Sequence of Acetylcholinesterase (AchE) (P37136 32-614): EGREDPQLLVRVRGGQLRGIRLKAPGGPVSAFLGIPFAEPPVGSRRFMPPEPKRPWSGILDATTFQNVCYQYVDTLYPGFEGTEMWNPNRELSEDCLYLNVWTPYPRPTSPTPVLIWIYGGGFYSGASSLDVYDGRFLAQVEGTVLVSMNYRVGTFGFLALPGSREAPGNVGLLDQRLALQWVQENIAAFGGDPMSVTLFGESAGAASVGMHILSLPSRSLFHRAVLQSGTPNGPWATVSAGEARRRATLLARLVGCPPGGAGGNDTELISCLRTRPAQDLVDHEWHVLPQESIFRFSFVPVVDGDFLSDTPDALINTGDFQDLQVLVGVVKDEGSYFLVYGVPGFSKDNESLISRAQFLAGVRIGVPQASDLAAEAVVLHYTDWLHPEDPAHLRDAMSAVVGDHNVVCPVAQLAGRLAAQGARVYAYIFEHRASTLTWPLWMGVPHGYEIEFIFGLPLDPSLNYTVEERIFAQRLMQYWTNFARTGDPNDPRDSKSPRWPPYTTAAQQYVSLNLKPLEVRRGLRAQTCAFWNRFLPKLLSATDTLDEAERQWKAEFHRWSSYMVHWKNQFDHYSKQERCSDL

`CC(C)CC(O[C@@H]1O[C@H](CO)[C@@H](O)[C@H](O)[C@H]1O)(C(=O)OCc1ccc(O[C@@H]2O[C@H](CO)[C@@H](O)[C@H](O)[C@H]2O)cc1)C(O)C(=O)OCc1ccc(O[C@@H]2O[C@H](CO)[C@@H](O)[C@H](O)[C@H]2O)cc1` (stereo partly drawn) [Compound W6, 1,4-bis(β-D-glucopyranosyloxybenzyl)-2-β-D-glucopyranosyl-2-isobutyltartrate] was tested, and the “effect on deficits of learning and memory caused by cerebral hypoperfusion” value ([1]; mice and rats, long term treatment, step-down testing and water-maze testing, result in words) was “significantly alleviated these changes”, the “Latency” value [1, 8] was 253 ± 31 s and the Number of errors [1, 8] was 0.2 ± 0.1. The “acute toxicity (animal death and body weight)” value (“acute toxicity” for short) (KM mice) was “The result is the same”, the “Escape Latency” value [2] was 33 ± 19 s and the Number of errors [2] was 5.4 ± 1.4. The “effect on Aβ(1-42)-induced impairment in passive avoidance performance” value ([3]; mice or rats, treatment for 2 weeks, result in words) was “significantly blocked”, the “Latency” value [3, 9] was 110 ± 37 s and the Number of errors [3, 9] was 0.9 ± 0.2. The Number of errors ([4]; dose 0.03 mg/kg by gavage) was 0.2 ± 0.1, the Number of errors ([4]; dose 0.3 mg/kg by gavage) was 0.4 ± 0.2 and the Number of errors ([4]; dose 3 mg/kg by gavage) was 0.3 ± 0.1. The “effect on scopolamine-induced impairment of passive avoidance (step-down latency, number of errors)” value (“effect … (step-down latency, number of errors)” for short) [4] was “attenuated the scopolamine-induced impairment of passive avoidance behaviors”, the “Latency” value ([4]; dose 0.03 mg/kg by gavage) was 283 ± 38 s and the “Latency” value ([4]; dose 0.3 mg/kg by gavage) was 259 ± 34 s. The “Latency” value ([4]; dose 3 mg/kg by gavage) was 258 ± 17 s, the “inhibition (%)” value [5, 10] was 0% and the “inhibition (%)” value [5, 11] was 0%. The AchE activity [5, 10] was 0.80 ± 0.16, the AchE activity [5, 11] was 0.72 ± 0.16 and the “inhibition on activity of AchE” value ([5]; single dose to rats) was “no inhibition”. The “effect on Aβ(1-42)-induced decrease in spatial working memory” value ([6]; treatment for 2 weeks, water maze, result in words) was “significantly improved”, the Number of errors ([6]; water-maze test (entering dead ends), Aβ(1-42) 10 μg/mouse ICV, mice, dose 1 mg/kg oral, two weeks) was 3.1 ± 0.8 and the “Escape Latency” value ([6]; water-maze test, Aβ(1-42) 10 μg/mouse ICV, mice, dose 1 mg/kg oral, two weeks) was 46 ± 11 s. For the same molecule, the “effect on cycloheximide-induced reduction of latency and number of errors” value ([7]; passive avoidance, result in words) was “significantly reversed the cycloheximide-induced reduction of step-down latency”, the “Improvement (%)” value ([7]; dose 1.25 mg/kg) was 57% and the “Improvement (%)” value ([7]; dose 2.5 mg/kg) was 65%. The “Improvement (%)” value ([7]; dose 5 mg/kg) was 38%, the “Improvement (%)” value ([7]; dose 10 mg/kg) was 61% and the “Latency” value ([7]; dose 1.25 mg/kg) was 211 ± 31 s. The “Latency” value ([7]; dose 2.5 mg/kg) was 223 ± 24 s, the “Latency” value ([7]; dose 5 mg/kg) was 182 ± 33 s and the “Latency” value ([7]; dose 10 mg/kg) was 216 ± 29 s. It also gave a No. of errors ([7]; dose 1.25 mg/kg) of 0.6 ± 1.2, a No. of errors ([7]; dose 2.5 mg/kg) of 0.7 ± 0.9 and a No. of errors ([7]; dose 5 mg/kg) of 0.4 ± 0.5. For the same molecule, the No. of errors ([7]; dose 10 mg/kg) was 0.3 ± 0.5.
`CC(C)CC(O)(C(=O)OCc1ccc(O[C@@H]2O[C@H](CO)[C@@H](O)[C@H](O)[C@H]2O)cc1)C(O)C(=O)OCc1ccc(O[C@@H]2O[C@H](CO)[C@@H](O)[C@H](O)[C@H]2O)cc1` (stereo partly drawn) [Compound W7, 1,4-bis(β-D-glucopyranosyloxybenzyl)-2-isobutyltartrate] was tested, and the “acute toxicity” value (KM mice) was “The result is the same”, the Number of errors ([4]; dose 0.25 mg/kg by gavage) was 0.4 ± 0.7 and the Number of errors ([4]; dose 1 mg/kg by gavage) was 0.2 ± 0.4. The “effect … (step-down latency, number of errors)” value [4] was “attenuated the scopolamine-induced impairment of passive avoidance behaviors”, the “Latency” value ([4]; dose 0.25 mg/kg by gavage) was 205 ± 142 s and the “Latency” value ([4]; dose 1 mg/kg by gavage) was 237 ± 125 s.
With `CC(C)CC(CC(=O)OCc1ccc(O[C@@H]2O[C@H](CO)[C@@H](O)[C@H](O)[C@H]2O)cc1)(O[C@@H]1O[C@H](CO)[C@@H](O)[C@H](O)[C@H]1O)C(=O)OCc1ccc(O[C@@H]2O[C@H](CO)[C@@H](O)[C@H](O)[C@H]2O)cc1` (stereo partly drawn) [Compound W8, 1,4-bis(β-D-glucopyranosyloxybenzyl)-2-β-D-glucopyranosyl-2-isobutylmalate] the “acute toxicity” value (KM mice) was “The result is the same”, the Number of errors ([4]; dose 0.25 mg/kg by gavage) was 0.7 ± 0.9 and the Number of errors ([4]; dose 1 mg/kg by gavage) was 0.3 ± 0.5. For the same molecule, the “effect … (step-down latency, number of errors)” value [4] was “attenuated the scopolamine-induced impairment of passive avoidance behaviors”, the “Latency” value ([4]; dose 0.25 mg/kg by gavage) was 197 ± 144 s and the “Latency” value ([4]; dose 1 mg/kg by gavage) was 218 ± 127 s.
With `CC(C)CC(O)(CC(=O)OCc1ccc(O[C@@H]2O[C@H](CO)[C@@H](O)[C@H](O)[C@H]2O)cc1)C(=O)OCc1ccc(O[C@@H]2O[C@H](CO)[C@@H](O)[C@H](O)[C@H]2O)cc1` (stereo partly drawn) [Compound W9, 1,4-bis(β-D-glucopyranosyloxybenzyl)-2-hydroxy-2-isobutylmalate] the “acute toxicity” value (KM mice) was “The result is the same”, the Number of errors ([4]; dose 0.25 mg/kg by gavage) was 0.8 ± 0.7 and the Number of errors ([4]; dose 1 mg/kg by gavage) was 0.4 ± 0.5. For the same molecule, the “effect … (step-down latency, number of errors)” value [4] was “attenuated the scopolamine-induced impairment of passive avoidance behaviors”, the “Latency” value ([4]; dose 0.25 mg/kg by gavage) was 140 ± 129 s and the “Latency” value ([4]; dose 1 mg/kg by gavage) was 210 ± 134 s.
